Experiment in all cases: Cell growth inhibition, Sulforhodamine B assay (SRB)
What all share (assay type): cell-based
In general terms: Sulforhodamine B stains cellular protein and so reports cell mass.

The subject of assay [1] is HCC1954 basal breast cancer cell line. The settings on record: Homo sapiens. As to the method: (§1) The cells were cultured for 5 days before the Sulforhodamine B assay (SRB) was performed to determine the compound's cell growth inhibition activity.
(§2) Sulforhodamine B (purchased from Sigma, Oakville, ON, Canada) is a water-soluble dye that binds to the basic amino acids of the cellular proteins. Thus, colorimetric measurement of the bound dye provides an estimate of the total protein mass that is related to the cell number. the cells are fixed in situ by gently aspirating off the culture media and adding 50 μl ice cold 10% Trichloroacetic Acid (TCA) per well and incubate at 4° C. for 30-60 min, The plates are washed with water five times and allowed to air dry for 5 min. […] Following staining, plates are washed four times with 1% acetic acid to remove unbound dye and then allowed to air dry for 5 min. […] Absorbance is read at 570 nm.
(§3) The percentage (%) of relative growth inhibition was calculated by comparing to DMSO treated only cells (100%). GI50's were determined for compounds with cytotoxic activity. The GI50 was calculated using GraphPad PRISM software (GraphPad Software, Inc., San Diego, Calif., USA).

Assay [2] concerns A549 lung cancer cell line. The note with it: Homo sapiens, read-out: Cell Line GI50 Range A-549. The method, then: as §1, §2, §3
Assay [3] deals with SW620 colon cancer cell line. The settings on record: Homo sapiens, SW-620, 120 h. The method, then:
as §1, §2, §3

Assay [4] deals with MCF-7 luminal breast cancer cell line. The settings on record: Homo sapiens, MCF7, 120 h. The method, then: as §1, §2, §3
Assay [5] has as its system MDA-MB-468 basal breast cancer cell line. The note with it: Homo sapiens, 5 days culture, SRB. The method, then: as §1, §2, §3
Where [6] appears, read: 120 h, HCC1954 basal breast cancer cell line, 5 days culture, SRB, read-out: Cell Line GI50 Range HCC-1954.
The mark [7] stands for this setting: 120 h, A549 lung cancer cell line, 5 days culture, SRB.
Setting [8] is: SW620 colon cancer cell line, 5 days culture, SRB, read-out: Cell Line GI50 Range SW-620.
Where [9] appears, read: MCF-7 luminal breast cancer cell line, 5 days culture, SRB, read-out: Cell Line GI50 Range MCF-7.
The mark [10] stands for this setting: 120 h, MDA-MB-468 basal breast cancer cell line, read-out: Cell Line GI50 Range MDA-MB-468.
Where [11] appears, read: read-out: Cell Line GI50 Range SW-620, SW620 colon cancer cell line, 5 days culture, SRB.
Setting [12] is: read-out: Cell Line GI50 Range MCF-7, MCF-7 luminal breast cancer cell line, 5 days culture, SRB.
[13] abbreviates: HCC1954, 120 h, HCC1954 basal breast cancer cell line, 5 days culture, SRB, read-out: Cell Line GI50 Range HCC-1954.
Where [14] appears, read: HCC1954, 120 h, read-out: Cell Line GI50 Range HCC-1954.

The record followed here is patent publication US8481525B2, “Kinase inhibitors and method of treating cancer with same” (University of Health Network, priority 2009, dated 2013).

Where a name gives a salt, the structure may show the parent alone. Read-outs that look alike come from different tables or passages of the source.

For orientation: GI50 means the concentration that inhibits growth by half. With `NS(=O)(=O)c1cccc(-c2n[nH]c3cc([C@@H]4C[C@@]45C(=O)Nc4ccccc45)ccc23)c1` (racemic) [Example A130, 3-(6-((1R*,2S*)-2′-oxospiro[cyclopropane-1,3′-indoline]-2-yl)-1H-indazol-3-yl)benzenesulfonamide], the GI50 is > 10000 nM in assay [1] (setting [6]); > 10000 nM in assay [2] (setting [7]); > 10000 nM in assay [3] (setting [8]); 1000 to 10000 nM in assay [4] (setting [9]); 1000 to 10000 nM in assay [5] (setting [10]).
`CN(C)Cc1ccc(/C=C/c2n[nH]c3cc([C@@H]4C[C@@]45C(=O)Nc4ccccc45)ccc23)cc1` [Example A24, (1R,2S)-(E)-2-(3-(4-((dimethylamino)methyl)styryl)-1H-indazol-6-yl)spiro[cyclopropane-1,3′-indolin]-2′-one 2,2,2-trifluoroacetate]: the GI50 in assay [3] (setting [11]) is < 100 nM.
As for `CCN(CC)Cc1ccc(/C=C/c2n[nH]c3cc([C@@H]4C[C@@]45C(=O)Nc4ccccc45)ccc23)cc1` (relative stereo) [Example A211, (1R*,2S*)-(E)-2-(3-(4-((diethylamino)methyl)styryl)-1H-indazol-6-yl)spiro-[cyclopropane-1,3′-indolin]-2′-one 2,2,2-trifluoroacetate], the GI50 in assay [3] (setting [11]) and in assay [4] (setting [12]) was 100 to 1000 nM each time.
For `O=C1Nc2ccccc2[C@@]12C[C@@H]2c1ccc2c(/C=C/c3cccnc3)n[nH]c2c1` (racemic) [Example A28, (1R*,2S*)-2-(3-((E)-2-(pyridin-3-yl)vinyl)-1H-indazol-6-yl)spiro-[cyclopropane-1,3′-indolin]-2′-one], the GI50 in assay [1] (setting [13]), in assay [2] (setting [7]) and in assay [4] (setting [9]) was 1000 to 10000 nM each time.
`COc1ccc2c(c1)[C@]1(CC1c1ccc3c(/C=C/c4ccc(CN5C[C@@H](C)O[C@@H](C)C5)cc4)n[nH]c3c1)C(=O)N2` (relative stereo) [Example A186, (1R*,2S*)-(E)-2-(3-(4-trans-2,6-dimethylmorpholino)methyl)styryl)-1H-indazol-6-yl)-5′-methoxspiro[cyclopropane-1,3′-indolin]-2′-one 2,2,2-trifluoroacetate]: the GI50 in assay [1] (setting [6]) was 1000 to 10000 nM.
As to `CN1C(=O)[C@@]2(C[C@H]2c2ccc3c(/C=C/c4ccc(CN5CCOCC5)cc4)n[nH]c3c2)c2ccccc21` (racemic) [Example A87, (1R*,2S*)-(E)-1′-methyl-2-(3-(4-(morpholinomethyl)styryl)-1H-indazol-6-yl)spiro[cyclopropane-1,3′-indolin]-2′-one 2,2,2-trifluoroacetate], the GI50 was 1000 to 10000 nM in assay [1] (setting [13]); < 100 nM in assay [2] (setting [7]); 100 to 1000 nM in assay [3] (setting [8]); < 100 nM in assay [4] (setting [9]); < 100 nM in assay [5] (setting [10]).
Consider `COc1ccc2c(c1)[C@@]1(C[C@@H]1c1ccc3c(/C=C/c4ccc(CCN5CCOCC5)cc4)n[nH]c3c1)C(=O)N2` (racemic) [Example A178, (1R*,2S*)-(E)-5′-methoxy-2-(3-(4-(2-morpholinoethyl)styryl)-1H-indazol-6-yl)spiro[cyclopropane-1,3′-indolin]-2′-one 2,2,2-trifluoroacetate], for which the GI50 is 100 to 1000 nM in assay [1] (setting [13]); < 100 nM in assay [2] (setting [7]); < 100 nM in assay [3] (setting [8]); < 100 nM in assay [4] (setting [9]); < 100 nM in assay [5] (setting [10]).
`O=C1Nc2ncc(Br)cc2[C@@]12C[C@@H]2c1ccc2c(/C=C/c3cccnc3)n[nH]c2c1` (racemic) [Example A27, (1R*,2S*)-5′-bromo-2-(3-((E)-2-(pyridin-3-yl)vinyl)-1H-indazol-6-yl)spiro[cyclopropane-1,3′-pyrrolo[2,3-b]pyridin]-2′(1′H)-one]: the GI50 in assay [1] (setting [13]) was in the range of 1000 to 10000 nM; in assay [2] (setting [7]), 1000 to 10000 nM; in assay [3] (setting [8]), 1000 to 10000 nM; in assay [4] (setting [9]), 1000 to 10000 nM; in assay [5] (setting [10]), 100 to 1000 nM.
Consider `COc1ccc2c(c1)[C@@]1(C[C@@H]1c1ccc3c(-c4ccnc(N5CCN(C)CC5)c4)n[nH]c3c1)C(=O)N2` (racemic) [Example A37, (1R*,2S*)-5′-Methoxy-2-(3-(2-(4-methylpiperazin-1-yl)pyridin-4-yl)-1H-indazol-6-yl)spiro[cyclopropane-1,3′-indolin]-2′-one], for which the GI50 in assay [1] (setting [6]) was > 10000 nM; in assay [2] (setting [7]) it was < 100 nM; in assay [3] (setting [8]), < 100 nM; in assay [4] (setting [9]), > 10000 nM; in assay [5] (setting [10]) it was 100 to 1000 nM.
Take `COc1ccc2c(c1)[C@@]1(C[C@@H]1c1ccc3c(-c4cccc(CO)c4)n[nH]c3c1)C(=O)N2` (racemic) [Example A43, (1R*,2S*)-2-(3-(3-(hydroxymethyl)phenyl)-1H-indazol-6-yl)-5′-methoxy spiro[cyclopropane-1,3′-indolin]-2′-one 2,2,2-trifluoroacetate]: the GI50 in assay [1] (setting [6]) is > 10000 nM; in assay [2] (setting [7]), 1000 to 10000 nM; in assay [3] (setting [8]), 1000 to 10000 nM; in assay [4] (setting [9]), 1000 to 10000 nM; in assay [5] (setting [10]), 1000 to 10000 nM.
As for `COc1ccc2c(c1)[C@@]1(C[C@@H]1c1ccc3c(-c4cccc(N5CCNCC5)c4)n[nH]c3c1)C(=O)N2` (racemic) [Example A47, (1R*,2S*)-5′-methoxy-2-(3-(3-(piperazin-1-yl)phenyl)-1H-indazol-6-yl)spiro[cyclopropane-1,3′-indolin]-2′-one 2,2,2-trifluoroacetate], the GI50 in assay [1] (setting [13]), in assay [2] (setting [7]), in assay [3] (setting [8]), in assay [4] (setting [9]) and in assay [5] (setting [10]) was 1000 to 10000 nM each time.
Take `COc1ccc2c(c1)[C@]1(C[C@H]1c1ccc3c(/C=C/c4ccc(CN5CCCCC5)nc4)n[nH]c3c1)C(=O)N2` (racemic) [Example A62, (1R,2S)-(E)-5′-methoxy-2-(3-((E)-2-(6-(piperidin-ylmethyl)pyridin-3-yl)vinyl)-1H-indazol-6-yl)spiro[cyclopropane-1,3′-indolin]-2′-one 2,2,2-trifluoroacetate salt]: in assay [1] (setting [14]), the GI50 lay in the range of 1000 to 10000 nM.
For `COc1ccc2c(c1)[C@@]1(C[C@@H]1c1ccc3c(-c4ccc(N5CCN(C)CC5)cc4)n[nH]c3c1)C(=O)N2` (racemic) [Example A38, (1R*,2S*)-5′-Methoxy-2-(3-(4-(4-methylpiperazin-1-yl)phenyl)-1H-indazol-6-yl)spiro[cyclopropane-1,3′-indolin]-2′-one], the GI50 is > 10000 nM in assay [1] (HCC1954, 120 h, read-out: Cell Line GI50 Range HCC-1954, HCC1954 basal breast cancer cell line, 5 days culture, SRB); < 100 nM in assay [2] (A549, 120 h); 100 to 1000 nM in assay [3] (read-out: Cell Line GI50 Range SW-620); 100 to 1000 nM in assay [4] (read-out: Cell Line GI50 Range MCF-7); < 100 nM in assay [5] (MDA-MB-468, 120 h, read-out: Cell Line GI50 Range MDA-MB-468, MDA-MB-468 basal breast cancer cell line).
Regarding `COc1ccc2c(c1)[C@]1(C[C@H]1c1ccc3c(/C=C/c4cccc(CN(C)C)c4)n[nH]c3c1)C(=O)N2` (racemic) [Example A135, (1R*,2S*)-2-(3-(3-((dimethylamino)methyl)styryl)-1H-indazol-6-yl)-5′-methoxyspiro[cyclopropane-1,3′-indolin]-2′-one 2,2,2-trifluoroacetate], the GI50 in assay [1] (setting [13]) is > 10000 nM; in assay [3] (setting [8]), 100 to 1000 nM.
On to `O=C1Nc2ccc(F)cc2[C@@]12C[C@@H]2c1ccc2c(/C=C/c3ccc(CN4CCOCC4)cc3)n[nH]c2c1` (racemic) [Example A219, (1R*,2S*)-(E)-5′-fluoro-2-(3-(4-(morpholinomethyl)styryl-1H-indazol-6-yl)spiro[cyclopropane-1,3′-indolin]-2′-one 2,2,2-trifluoroacetate], for which the GI50 in assay [1] (setting [14]) and in assay [4] (setting [12]) was 100 to 1000 nM in each case.
Consider `COc1ccc2c(c1)[C@]1(C[C@H]1c1ccc3c(/C=C/c4cccc(CN5CCOCC5)c4)n[nH]c3c1)C(=O)N2` (racemic) [Example A133, (1R*,2S*)-5′-methoxy-2-(3-(3-(morpholinomethyl)styryl)-1H-indazol-6-yl)spiro[cyclopropane-1,3′-indolin]-2′-one 2,2,2-trifluoroacetate], for which the figures for the GI50 in assay [1] (setting [6]), in assay [3] (setting [8]) and in assay [4] (setting [9]) were > 10000 nM, 100 to 1000 nM and < 100 nM, respectively.
